Literature values, collected in the PKSmart pharmacokinetics tables (Seal et al. 2025).

Key:
[1] = Lombardo et al. 2013, J Clin Pharmacol 53:178, doi 10.1177/0091270012440282; details: for Vd / clearance: in vivo, iv; for fraction unbound: plasma
[2] = Lombardo, Berellini, Obach 2018, Drug Metab Dispos 46:1466, doi 10.1124/dmd.118.082966; details: human; for MRT / Vd / clearance / half-life: in vivo, iv; for fraction unbound: plasma

Compound | Vd ([1]; rat) | clearance ([1]; rat) | clearance ([1]; dog) | fraction unbound ([1]; dog) | fraction unbound ([1]; rat) | Vd ([1]; dog) | also measured
CC(C)(C)[C@]1(O)C[C@@H]2OC(=O)C[C@@]23C(=O)O[C@@H]2OC(=O)C(O)[C@]213 (stereo partly specified) | 10 L/kg | 140 mL/min/kg | – | – | – | – | –
CC(=O)N[C@H]1[C@H]([C@H](O)[C@H](O)CO)OC(C(=O)O)=C[C@@H]1N=C(N)N | 0.8 L/kg | 31.7 mL/min/kg | – | – | – | – | –
C[C@@H](O)C1C(=O)N2C(C(=O)O)=C(SCC/N=C/N)C[C@H]12 (stereo partly specified) | – | 14.5 mL/min/kg | 4.3 mL/min/kg | 1 | 1 | – | clearance ([1]; monkey): 5.7 mL/min/kg; fraction unbound ([1]; monkey): 0.975
[H]/N=C(\N)c1ccc(OCCCCCOc2ccc(/C(N)=N/[H])cc2)cc1 | 10.1 L/kg | 112 mL/min/kg | 60.6 mL/min/kg | 0.266 | 0.4 | 6.6 L/kg | –
Cn1nnc2c(C(N)=O)ncn2c1=O | 0.92 L/kg | 9.8 mL/min/kg | – | – | – | – | –
CCCCC[C@H](O)CC[C@@H]1[C@H]2Cc3cccc(OCC(=O)O)c3C[C@H]2C[C@H]1O | – | – | 35.8 mL/min/kg | – | – | 0.11 L/kg | –
CC(C)(N)CC(=O)NC1CCc2ccccc2N(Cc2ccc(-c3ccccc3-c3nn[nH]n3)cc2)C1=O (stereo unspecified) | 0.15 L/kg | 2.7 mL/min/kg | 19.3 mL/min/kg | 0.86 | 0.02 | 0.34 L/kg | Vd ([1]; monkey): 0.16 L/kg; clearance ([1]; monkey): 5.7 mL/min/kg; fraction unbound ([1]; monkey): 0.06
O=C(c1ccccc1)c1ccc2n1CCC2C(=O)O (stereo unspecified) | – | 3.6 mL/min/kg | 1.25 mL/min/kg | – | – | 0.33 L/kg | –
COCCc1ccc(OCC(O)CNC(C)C)cc1 (stereo unspecified) | 6.3 L/kg | 87.2 mL/min/kg | – | 0.756 | 0.69 | – | Vd ([1]; monkey): 14 L/kg; clearance ([1]; monkey): 21.9 mL/min/kg; fraction unbound ([1]; monkey): 0.825
CN1C2CCC[C@@H]1CC(NC(=O)c1nn(C)c3ccccc13)C2 (stereo partly specified) | 16.7 L/kg | 824 mL/min/kg | – | – | – | – | –
O=C(CCCCCCC(O)=NO)Nc1ccccc1 | 1.6 L/kg | 130 mL/min/kg | – | 0.458 | – | – | –
CCC#CC[C@H](C)[C@H](O)C#C[C@@H]1[C@H]2C/C(=C/COCCCC(=O)O)C[C@H]2C[C@H]1O | 1.5 L/kg | 170 mL/min/kg | – | – | – | – | Vd ([1]; monkey): 1.6 L/kg; clearance ([1]; monkey): 63.1 mL/min/kg
CC1C(=O)O[C@H]2C[C@@]34[C@H]5C[C@@H](C(C)(C)C)[C@@]36C(O)C(=O)O[C@H]6O[C@@]4(C(=O)O5)[C@@]12O (stereo partly specified) | 4.3 L/kg | 65 mL/min/kg | – | – | – | – | –
CONC(C(=O)N=C1C(=O)N2C(C(=O)[O-])=C(C[N+]34CCC(C(N)=O)(CC3)CC4)CS[C@H]12)c1nsc(N)n1 (stereo partly specified) | – | – | 3.3 mL/min/kg | – | – | 0.23 L/kg | –
CC1(C)SC2C(NC(=O)C(NC(=O)N3CCNC3=O)c3ccccc3)C(=O)N2C1C(=O)O (stereo unspecified) | – | – | 2.8 mL/min/kg | – | – | 0.27 L/kg | –
C[C@@H](O)C1C(=O)N2C(C(=O)O)=C(S[C@H]3CC(C(=O)N4CC[C@H](NC(=O)CN=C(N)N)C4)N(C)C3)[C@H](C)[C@H]12 (stereo partly specified) | 0.2 L/kg | 15.7 mL/min/kg | 3.96 mL/min/kg | 0.928 | 0.95 | 0.25 L/kg | Vd ([1]; monkey): 0.18 L/kg; clearance ([1]; monkey): 1.7 mL/min/kg; fraction unbound ([1]; monkey): 0.85
CC(NC(=O)N(CCCl)N=O)C(N)=O (stereo unspecified) | – | – | 17.6 mL/min/kg | – | – | – | –
NC(N)=Nc1nc(CSCCC(N)=NS(N)(=O)=O)cs1 | 0.8 L/kg | 22 mL/min/kg | 8.6 mL/min/kg | 0.72 | 0.47 | 0.79 L/kg | Vd ([1]; monkey): 2.1 L/kg; clearance ([1]; monkey): 15 mL/min/kg; fraction unbound ([1]; monkey): 0.13
CCN[C@@H]1C[C@H](N)[C@@H](OC2OC(CN)=CCC2N)[C@H](O)[C@H]1O[C@H]1OC[C@](C)(O)[C@H](NC)[C@H]1O (stereo partly specified) | – | – | 3.4 mL/min/kg | – | – | 0.34 L/kg | –

Compound | Vd ([1]; rat) | clearance ([1]; rat) | clearance ([1]; dog) | fraction unbound ([1]; dog) | fraction unbound ([1]; rat) | Vd ([1]; dog) | also measured
CCCc1nn(C)c2c(=O)nc(-c3cc(S(=O)(=O)N4CCN(C)CC4)ccc3OCC)[nH]c12 | 1.1 L/kg | 48 mL/min/kg | 12 mL/min/kg | 0.14 | – | 5.2 L/kg | –
Cc1nnc(C(C)C)n1C1C[C@H]2CC[C@@H](C1)N2CC[C@H](NC(=O)C1CCC(F)(F)CC1)c1ccccc1 (stereo partly specified) | 2.53 L/kg | 74 mL/min/kg | 21 mL/min/kg | 0.36 | 0.49 | 2.32 L/kg | –
CCC[C@@H]1CC(C(=O)N[C@@H]([C@H]2O[C@H](SC)[C@H](O)[C@@H](O)[C@H]2O)[C@H](C)Cl)N(C)C1 (stereo partly specified) | – | – | – | 0.035 | 0.325 | – | –
Cc1cccc([C@H](C)c2cnc[nH]2)c1C | 3.24 L/kg | 59.4 mL/min/kg | – | – | – | – | –
[H]/N=C(\N)c1ccc(CNC(=O)C2CCN2C(=O)C(NCC(=O)O)C2CCCCC2)cc1 (stereo unspecified) | 0.39 L/kg | 16.9 mL/min/kg | 7 mL/min/kg | 0.89 | 0.9 | 0.36 L/kg | –
Oc1ccc2c(c1)[C@]13CCCC[C@@]1(O)[C@H](C2)N(CC1CCC1)CC3 | 4.8 L/kg | 91.2 mL/min/kg | 58 mL/min/kg | 0.369 | 0.34 | 8.4 L/kg | –
NC(=O)C(c1ccccc1)(c1ccccc1)[C@@H]1CCN(CCc2ccc3c(c2)CCO3)C1 | 7 L/kg | 59 mL/min/kg | 39 mL/min/kg | – | – | 6.8 L/kg | –
OC(CNCC(O)C1CCc2cc(F)ccc2O1)C1CCc2cc(F)ccc2O1 (stereo unspecified) | 6.2 L/kg | 49 mL/min/kg | – | – | 0.015 | – | –
CC1C(=O)O[C@H]2[C@H](O)[C@@]34[C@H]5C[C@@H](C(C)(C)C)[C@@]36C(O)C(=O)O[C@H]6O[C@@]4(C(=O)O5)[C@@]12O (stereo partly specified) | 3.5 L/kg | 60 mL/min/kg | – | – | – | – | –
O=c1nc[nH]c2c1ncn2[C@H]1CC[C@@H](CO)O1 | 1.3 L/kg | 150 mL/min/kg | 25.3 mL/min/kg | – | – | 0.96 L/kg | Vd ([1]; monkey): 1.3 L/kg; clearance ([1]; monkey): 27.2 mL/min/kg
CC(C)=CCN1CC[C@@]2(C)c3cc(O)ccc3C[C@@H]1[C@@H]2C | – | – | – | – | – | – | Vd ([1]; monkey): 9.62 L/kg; clearance ([1]; monkey): 56.6 mL/min/kg
COc1ccccc1Oc1c(NS(=O)(=O)c2ccc(C)cn2)nc(-c2ccnc(-c3nn[nH]n3)c2)nc1OCCO | 0.32 L/kg | 11.7 mL/min/kg | 2.89 mL/min/kg | – | – | 0.11 L/kg | Vd ([1]; monkey): 0.36 L/kg; clearance ([1]; monkey): 19 mL/min/kg
OC(CCN1CCCCC1)(c1ccccc1)C1CC2C=CC1C2 (stereo unspecified) | – | – | 27 mL/min/kg | 0.19 | 0.31 | 9.7 L/kg | –
OC(c1ccccc1)(c1ccccc1)C12CC[N+](CCOCc3ccccc3)(CC1)CC2 | – | – | – | – | – | – | MRT [2]: 0.57 h; Vd [2]: 1.23 L/kg; clearance [2]: 36 mL/min/kg; half-life [2]: 1140 min; fraction unbound [2]: 0.11
CN(C)CC/C=C1\c2ccccc2COc2ccccc21 | – | – | – | – | – | – | MRT [2]: 15 h; Vd [2]: 12 L/kg; clearance [2]: 14 mL/min/kg; half-life [2]: 900 min
CCCCC[C@@H](O)CC[C@H]1[C@@H]2Cc3cccc(OCC(=O)O)c3C[C@@H]2C[C@@H]1O | – | – | – | – | – | – | MRT [2]: 0.36 h; Vd [2]: 0.23 L/kg; clearance [2]: 10.7 mL/min/kg; half-life [2]: 49.2 min; fraction unbound [2]: 0.09
COC1C(=O)C(C)C[C@H](C)/C=C/C=C/C=C(\C)[C@@H](OC)C[C@@H]2CC[C@@H](C)[C@@](O)(O2)C(=O)C(=O)N2CCCCC2C(=O)O[C@H]([C@H](C)C[C@@H]2CC[C@@H](OC(=O)C(C)(CO)CO)[C@H](OC)C2)CC(=O)C(C)=CC(C)[C@H]1O (stereo partly specified) | – | – | – | – | – | – | MRT [2]: 10 h; Vd [2]: 3 L/kg; clearance [2]: 7.7 mL/min/kg; half-life [2]: 1080 min
CCC1=NC(=O)C2CSSCC/C=C/[C@H](CC(=O)NC(C(C)C)C(=O)N2)OC(=O)C(C(C)C)NC1=O (stereo partly specified) | – | – | – | – | – | – | MRT [2]: 2.6 h; clearance [2]: 7.4 mL/min/kg; half-life [2]: 660 min; fraction unbound [2]: 0.07
O=P(O)(O)C(Sc1ccc(Cl)cc1)P(=O)(O)O | – | – | – | – | – | – | MRT [2]: 9.5 h; Vd [2]: 0.23 L/kg; clearance [2]: 0.4 mL/min/kg; half-life [2]: 462 min; fraction unbound [2]: 0.1
